Common to all, as to assay: growth of human tumour cells (NCI), 48 h
For assay [1], the system named is SK-MEL-28 melanoma.
Assay [2] concerns CCRF-CEM leukemia.
The subject of assay [3] is HOP-92 NSCLC.
Assay [4] concerns TK-10 renal.
Assay [5] deals with OVCAR-3 ovarian.
In assay [6] the test system is HT29 colon.
In assay [7] the test system is A498 renal.
For assay [8], the system named is ACHN renal.
The test system of assay [9] is RPMI-8226 leukemia.
Assay [10] deals with RXF 393 renal.

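These data come from cells grown in 96-well plates and exposed to compound for 48 hours at five concentrations. GI50 = concentration required for 50% inhibition of growth. TGI: total growth inhibition.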 A value given as a limit tells only on which side of the number the result lay.

For `CCC1=C[C@H]2CN(CCc3c([nH]c4ccccc34)[C@@](C(=O)OC)(c3cc4c(cc3OC)N(C)[C@H]3[C@@](O)(C(=O)OC)[C@H](OC(C)=O)[C@]5(CC)[C@@H]6C[C@@H]6CN6CC[C@]43[C@@H]65)C2)C1`, the GI50 was 2.91 µM in [1]; 0.0495 µM in assay [2]; 0.109 µM in [3]; 3.33 µM in assay [4]; 0.0105 µM in assay [5]; 0.0113 µM in assay [6]. The GI50 is 0.035 µM in assay [7] and 0.144 µM in [8]. For the same compound, the TGI in assay [1] was 6.48 µM; in assay [2] it was 4.48 µM; in [3] it was 1.76 µM; in assay [4], 8.13 µM; in assay [5], 2.59 µM; in assay [6], 2.91 µM. Also, the TGI in [7] came out at 0.183 µM; in assay [8], 6.02 µM.

In the case of `Cc1ccccc1C(C#N)/C(=N/NC(=O)C(=O)NN)C(=O)Nc1cccc(C(F)(F)F)c1` (stereo not given), the TGI in assay [1], in assay [2], in assay [3], in assay [9], in [4] and in assay [5] was greater than 100 µM in each case. Moreover, the TGI in assay [6], in [7] and in assay [8] was greater than 100 µM in each case.

For the compound `CC(C)(C)C1CCN(C(=O)c2ccccc2)CC1`, the TGI in [2], in assay [9], in assay [4], in assay [5], in assay [10] and in assay [6] was greater than 100 µM throughout. Also, the TGI in [7] and in assay [8] was greater than 100 µM each time.

In the case of `O=c1nc2[nH]nc(-c3ccccc3)c2n[nH]1`, the TGI in [1], in assay [2], in assay [9], in [4], in [5] and in [10] was greater than 100 µM in each case. Moreover, the TGI in assay [6], in assay [7] and in assay [8] was greater than 100 µM each time.

As to `CC1=C(C(=O)Nc2ccc(Cl)c(Cl)c2)C(c2cccc(O)c2)NC(=S)N1` (stereo not given), the GI50 is 13.6 µM in assay [3]; 10.1 µM in assay [9]; 5.69 µM in assay [5]; 12.8 µM in assay [10]; 9.23 µM in assay [8]. Also, the TGI in assay [3] came out at 35.2 µM; in assay [9], 38.1 µM; in assay [5] it was 12.5 µM; in assay [10], 29.3 µM; in [8], 19.7 µM.

Turning to `COC(=O)/C(Br)=C/c1c[nH]c2ccc(Br)cc12`, the GI50 in assay [1] is 14.3 µM; in [2], 4.87 µM; in assay [3], 2.13 µM; in assay [4] it was 19 µM; in [5], 16.2 µM; in assay [6] it was 11 µM. Moreover, the values for the GI50 in assay [7] and in assay [8] were 7.98 µM and 11.8 µM, respectively. In addition, the TGI in assay [1] amounted to 27.8 µM; in [2] it was 22.8 µM; in assay [3], 15.7 µM; in [4], 49.4 µM; in assay [5], 66.9 µM; in assay [6], 24.8 µM. Moreover, the TGI amounted to 20.9 µM in [7] and 43.2 µM in [8].

Consider `O=S(=O)(c1ccccc1)C1CN(Cc2ccccc2)CCN(Cc2ccccc2)C1`, for which the TGI was greater than 100 µM in [1]; greater than 100 µM in assay [2]; 53.4 µM in assay [9]; greater than 100 µM in assay [4]; greater than 95.8 µM in [5]; 43.3 µM in assay [10]. Further, the TGI in [6], in assay [7] and in assay [8] was greater than 100 µM each time.

Consider `COC(=O)c1cc(O)ccc1NC(=O)c1ccc(O)cc1`, for which the TGI in assay [1], in [2], in [3], in assay [9], in [4] and in [5] was greater than 100 µM each time. Also, the TGI in assay [6] and in assay [8] was greater than 100 µM throughout.

`O=C(Nc1cc(Cl)cc(Cl)c1)c1ccc(NC2=C(Cl)C(=O)N(Cc3ccccc3)C2=O)cc1`: the GI50 in assay [1] was 41.9 µM; in [2], 3.17 µM; in [9], 1.74 µM; in assay [4], 19.5 µM; in [5], 1.99 µM; in assay [6], 16.8 µM. Further, the GI50 is 8.06 µM in assay [7] and 1.82 µM in [8]. Moreover, the TGI was greater than 100 µM in assay [1]; 12.1 µM in assay [2]; 4.2 µM in assay [9]; 51.5 µM in assay [4]; 5.37 µM in assay [5]; greater than 100 µM in assay [6]. In addition, the TGI in assay [7] is 22.2 µM; in assay [8] it was 7.77 µM.

As to `O=C(CN/C=C\C(=O)c1cc(Cl)ccc1Cl)c1ccccc1`, the GI50 in assay [1] is 41.9 µM; in assay [2], 18.5 µM; in assay [4], 26 µM; in [5], 26 µM; in assay [10] it was 22.9 µM; in [6] it was 31.6 µM. The GI50 is 23.2 µM in assay [7] and greater than 100 µM in assay [8]. Moreover, the TGI in assay [1] is greater than 100 µM; in assay [2], 36.7 µM; in [4], 73.7 µM; in [5] it was 85.7 µM; in assay [10] it was 67.5 µM; in [6], greater than 100 µM. Further, the TGI in [7] was 90.5 µM; in assay [8], greater than 100 µM.

Regarding `COc1ccc2c(c1)N(CCO)C1=C(C(=O)OC1)C2c1cccc(Br)c1` (stereo not given), the GI50 is 0.217 µM in assay [2]; 0.184 µM in assay [9]; 0.349 µM in assay [4]; 0.0338 µM in assay [5]; 0.0482 µM in assay [10]; 0.0429 µM in [6]. Further, the GI50 in assay [7] was 0.0293 µM; in [8] it was 0.0824 µM. The TGI was greater than 100 µM in assay [2]; 28.4 µM in [9]; 83.6 µM in assay [4]; 0.135 µM in assay [5]; 71 µM in [10]; 0.387 µM in assay [6]. Moreover, the figures for the TGI in assay [7] and in assay [8] were 1.21 µM and greater than 100 µM, respectively.

As to `C/C(CC(=O)Nc1ccc([N+](=O)[O-])cc1)=N/N=C(N)N`, the TGI in assay [1], in assay [2], in [3], in [4], in [5] and in assay [10] was greater than 100 µM throughout. Further, the TGI in [6] and in assay [8] was greater than 100 µM each time.

As to `Cc1cc2c(=O)cc(-c3ccc(C(=O)O)cc3)oc2c(C(=O)O)c1C`, the TGI in assay [1], in [2], in assay [3], in assay [9], in assay [4] and in assay [5] was greater than 100 µM each time. In addition, the TGI in assay [6] and in [8] was greater than 100 µM in each case.

Consider `O=C1[C@H](c2ccccc2)C2c3ccccc3CCN12` (stereo not given in full), for which the GI50 in assay [1], in assay [2], in [9], in assay [4], in assay [5] and in [10] was greater than 100 µM throughout. Moreover, the GI50 in assay [6], in assay [7] and in [8] was greater than 100 µM throughout. The TGI in assay [1], in assay [2], in [9], in [4], in assay [5] and in assay [10] was greater than 100 µM in each case. Further, the TGI in [6], in [7] and in [8] was greater than 100 µM each time.

For the compound `Clc1ccc(CCn2cncn2)c(Cl)c1`, the TGI in assay [1], in assay [2], in assay [3], in assay [4], in [5] and in assay [6] was greater than 100 µM in each case. In addition, in [8], the TGI is greater than 100 µM.

As to `C=C1CCC2C(C)(CO)C(O)CCC2(C)C1CC(O)C1=CCOC1=O` (stereo not given), the TGI is greater than 100 µM in assay [1]; 84.3 µM in assay [2]; greater than 100 µM in assay [3]; greater than 100 µM in [9]; greater than 100 µM in [4]; 58.9 µM in [5]. Besides, the TGI in [6], in assay [7] and in assay [8] was greater than 100 µM throughout.

For `COc1ccc2c(c1)CC[C@@H]1[C@@H]2CC[C@]2(C)c3c(cc(C(=O)c4ccccc4)c4sccc34)C[C@@H]12`, the GI50 in [1], in assay [2], in assay [9], in assay [4], in assay [5] and in assay [10] was greater than 100 µM each time. The GI50 in [6], in [7] and in assay [8] was greater than 100 µM each time. Also, the TGI in assay [1], in assay [2], in assay [9], in assay [4], in assay [5] and in assay [10] was greater than 100 µM each time. Moreover, the TGI in assay [6], in [7] and in assay [8] was greater than 100 µM each time.

In the case of `COc1ccc2oc(-c3ccc(Cl)cc3)c(N3CCN(C)CC3)c2c1`, the GI50 in assay [1] was 1.62 µM; in assay [2], 1.71 µM; in [3], 0.37 µM; in assay [9], 1.25 µM; in [4], 1.83 µM; in assay [5], 1.95 µM. Moreover, the GI50 in assay [6] is 1.42 µM; in assay [7] it was 1.53 µM; in assay [8] it was 1.73 µM. Besides, the TGI in assay [1] amounted to 3.08 µM; in [2], 4.06 µM; in assay [3] it was 2.78 µM; in assay [9] it was 4.72 µM; in assay [4], 3.58 µM; in assay [5] it was 4.37 µM. Besides, the figures for the TGI in assay [6], in [7] and in [8] were 3.32 µM, 3.15 µM and 3.7 µM, respectively.

`Cc1cc(Cl)ccc1Nc1nc(C(F)(F)F)ccc1C(=O)N/N=C/c1ccc(F)cc1`: the GI50 in assay [1] is 2.01 µM; in assay [2], 0.528 µM; in [3], 1.75 µM; in assay [9] it was 1.79 µM; in [4] it was 1.7 µM; in assay [5], 0.491 µM. For the same compound, the GI50 in assay [6] is 2.83 µM; in [7], 1.48 µM; in [8] it was 2.48 µM. Moreover, the TGI in [1] worked out at 10.6 µM; in assay [2], 5.9 µM; in [3] it was 6.14 µM; in assay [9], 7.37 µM; in [4], 7.6 µM; in assay [5], 2.24 µM. Moreover, the results for the TGI in assay [6], in assay [7] and in [8] were 10.3 µM, 5.92 µM and 10.8 µM, respectively.

With `CCOCC[P+](c1ccccc1)(c1ccccc1)c1ccccc1`, the GI50 was 16 µM in [1]; 23 µM in assay [2]; 4.55 µM in [9]; 19.3 µM in assay [5]; 16.2 µM in assay [6]; 17.6 µM in assay [7]. Also, the GI50 in assay [8] was 35.8 µM. Moreover, the TGI is 70.6 µM in assay [1]; greater than 100 µM in assay [2]; 40.4 µM in [9]; greater than 100 µM in assay [5]; 96.3 µM in assay [6]; 64.2 µM in assay [7]. In addition, in [8], the TGI was greater than 100 µM.

For the compound `O=C(Cc1nc2ccccc2s1)NC12CC3CC(CC(C3)C1)C2`, the TGI in assay [1], in [2], in [3], in [4], in assay [6] and in [7] was greater than 100 µM each time. Further, the TGI in [8] was greater than 100 µM.

Take `COC(=O)CCC(=O)C(C#N)c1ccc(Cl)cc1Cl` (stereo not given): the TGI in [1], in [2], in assay [3], in [9], in [4] and in assay [5] was greater than 100 µM throughout. The TGI in assay [6] and in assay [8] was greater than 100 µM in each case.

With `C/C(CN1C(=O)c2ccccc2C1=O)=N\NS(C)(=O)=O`, the TGI in assay [1], in assay [2], in [9], in assay [4], in assay [5] and in [10] was greater than 100 µM each time. Moreover, the TGI in assay [6], in assay [7] and in assay [8] was greater than 100 µM in each case.

Source of the values: PubChem BioAssay (NCI).
